Assay results reported in US10442793B2, “Oxa spiro derivative, preparation method therefor, and applications thereof in medicines” (Jiangsu Hengrui Medicine Co., Ltd., priority 2015, dated 2019).
Read-outs that look alike come from different tables or passages of the source.

Experiments:
Format in all cases: cell-based
μ-opioid receptors (MOR) = molecular target: T1, μ-opioid receptors (MOR) (Homo sapiens, UniProt P35372); assay: MOR activity test: HEK293/MOR/CRE luciferase reporter, agonizing MOR and affecting downstream cAMP levels; conditions: for Emax: HEK293, maximum effect of TRV-130 is 100%, read-out: Emax on agonizing MOR receptor and affecting cAMP levels
T1 construct: host or cells: HEK293
Description: The compounds of the present invention can activate μ-opioid receptors (MOR). Activated MOR can regulate intracellular cAMP levels, and cAMP enters the nucleus and binds to the CRE region of the reporter gene luciferase, thereby initiating the expression of the reporter gene. Luciferase can react with its substrate to emit fluorescence, and the measured fluorescence signals reflect the agonistic activity of the compounds.
The activity of the test example compounds on agonizing MOR and affecting downstream cAMP levels was tested by the following method.
MOR/pcDNA3.1 (+) and CRE/pGL4.29 were transferred into HEK293 cells. G418 and hygromycin were added into the culture medium, and HEK293/MOR/CRE monoclonal cell lines were screened in a 96-well cell culture plate.
HEK293/MOR/CRE monoclonal cells were cultured in a DMEM/high glucose medium (10% FBS, 1 mg/ml G418, 200 μg/ml hygromycin, mixed uniformly), and passaged every 3 days. On the day of the experiment, a cell suspension was prepared with a fresh cell medium, added to a 96 well plate (BD, #356692) with 20,000 cells/well, and incubated in 5% CO2 at 37° C. On the second day, the compound was dissolved in pure DMSO at a concentration of 20 mM, then formulated with DMSO to a first concentration of 4 mM and diluted in 10 fold concentration gradient to 6 concentrations. Then, 90 μl of DMSO was added to blank and control wells. Then, formulated compound was prepared by adding 2.5 μl of the compound solutions formulated in DMSO at a gradient concentration to 97.5 μl of a fresh cell culture medium containing 5 μM foscolin. Then, 10 μl of the formulated compound was added to the cell culture plate to make the final concentration of the compound 10000, 1000, 100, 10, 1, 0.1, or 0.01 nM, and the plate was incubated at 37° C., in 5% CO2 for 5 hours. In a 96-well cell culture plate, 100 μl of luciferase assay solution (Promega, # E6110) was added to each well. The plate was placed in the dark at room temperature for 10-15 minutes, blowed and aspirated 10 times, and 100 μl were pipetted to a 96 well white plate. The chemiluminescence signal values were read in a microplate reader (PE, Victor3), and the read data was processed using software.
The activity of the compounds of the present invention on agonizing MOR and affecting downstream cAMP levels was determined by the above test, and the EC50 values are shown in Table 1.1.

hERG potassium channel = molecular target: T2, hERG potassium channel (Homo sapiens, UniProt Q12809); assay: Blocking of hERG potassium current, automatic patch clamp on HEK293-hERG cells
T2 construct: expressed in transfected cells; host or cells: HEK293
Method: The blocking effect of the compounds of the present invention and the positive compound TRV-130 (Journal of Pharmacology and Experimental Therapeutics, Volume 344, Issue 3, Pages 708-717, 2013) on hERG potassium current was tested on a stable cell line transfected with hERG potassium channel using an automatic patch clamp.
HEK293-hERG stabilized cells were subcultured at a density of 1:4 in a MEM/EBSS medium (10% FBS, 400 μg/ml G418, 1% MEM nonessential amino acid solution (100×), 1% sodium pyruvate solution) for 48-72 hours, then the automatic patch clamp experiment was performed. The cells were digested with 0.25% trypsin on the day of the experiment, then the cells were collected by centrifugation and resuspended with extracellular fluid (140 mM NaCl, 4 mM KCl, 1 mM MgCl2, 2 mM CaCl2, 5 mM D-glucose monohydrate, 10 mM Hepes, pH 7.4, 298 mOsmol) into a cell suspension. The cell suspension was placed on the cell bank of the Patchliner instrument, and the cells were added to the chip (NPC-16) by the negative pressure controller of the Patchliner instrument, with negative pressure attracting individual cells to the small hole of the chip. After the whole cell model was formed, the instrument generated the hERG current according to the preset hERG current and voltage program, and then the instrument perfused the compound from low concentration to high concentration automatically. HEAK Patchmaster, HEAK EPC10 patch clamp amplifier (Nanion), Pathliner software, and a data analysis software provided by Pathcontrol HTsoftware were used to analyze the current of the compounds at different concentrations and the current of the blank control.
The blocking effect of the compounds of the present invention on hERG potassium current was determined by the above test, and the IC50 values are shown in Table 3.

MOR receptor = molecular target: T3, MOR receptor (Homo sapiens, UniProt P35372); assay: Activation of the β-arrestin signaling pathway of MOR receptor (CHO-K1 OPRM1 β-Arrestin cells, DiscoveRX); conditions: for Emax: maximum effect of morphine is 100%
T3 construct: host or cells: CHO-K1
Method: The experiment objective is to determine the activity of the compounds of the present invention on activating the β-arrestin signaling pathway of MOR receptor.
The drug was prepared as a 20 mM stock solution that was later diluted with 100% DMSO to a 200×concentration gradient, and then diluted with a 20-fold AssayComplete™ Cell Plating 2 Reagent (93-0563R2B, DiscoveRX) medium. The cell culture plate inoculated on the first day was taken out, and 10 μl of the diluted drug or control (0.5% DMSO) was added to each well. The plate was gently shaken and placed in an incubator at 37° C., 5% CO2 for 90 minutes. Finally, 50 μL of a detection reagent (93-0001, DiscoveRX) were added to each well, and the plate was placed at room temperature for 60 minutes. The absorbance values were measured by the cold light model of a microplate reader (PE, Victor3). The EC50 values of the compounds were calculated by Graphpad Prism software according to each concentration of the compound and the corresponding signal value.

[1] = CHO-K1 OPRM1 β-Arrestin cells, 90 minutes, read-out: EC50 on the β-arrestin signaling pathway
[2] = HEK293/MOR/CRE cells, 5 h incubation, forskolin, read-out: EC50 on agonizing MOR receptor and affecting cAMP levels

T2 sequence (Q12809 whole entry): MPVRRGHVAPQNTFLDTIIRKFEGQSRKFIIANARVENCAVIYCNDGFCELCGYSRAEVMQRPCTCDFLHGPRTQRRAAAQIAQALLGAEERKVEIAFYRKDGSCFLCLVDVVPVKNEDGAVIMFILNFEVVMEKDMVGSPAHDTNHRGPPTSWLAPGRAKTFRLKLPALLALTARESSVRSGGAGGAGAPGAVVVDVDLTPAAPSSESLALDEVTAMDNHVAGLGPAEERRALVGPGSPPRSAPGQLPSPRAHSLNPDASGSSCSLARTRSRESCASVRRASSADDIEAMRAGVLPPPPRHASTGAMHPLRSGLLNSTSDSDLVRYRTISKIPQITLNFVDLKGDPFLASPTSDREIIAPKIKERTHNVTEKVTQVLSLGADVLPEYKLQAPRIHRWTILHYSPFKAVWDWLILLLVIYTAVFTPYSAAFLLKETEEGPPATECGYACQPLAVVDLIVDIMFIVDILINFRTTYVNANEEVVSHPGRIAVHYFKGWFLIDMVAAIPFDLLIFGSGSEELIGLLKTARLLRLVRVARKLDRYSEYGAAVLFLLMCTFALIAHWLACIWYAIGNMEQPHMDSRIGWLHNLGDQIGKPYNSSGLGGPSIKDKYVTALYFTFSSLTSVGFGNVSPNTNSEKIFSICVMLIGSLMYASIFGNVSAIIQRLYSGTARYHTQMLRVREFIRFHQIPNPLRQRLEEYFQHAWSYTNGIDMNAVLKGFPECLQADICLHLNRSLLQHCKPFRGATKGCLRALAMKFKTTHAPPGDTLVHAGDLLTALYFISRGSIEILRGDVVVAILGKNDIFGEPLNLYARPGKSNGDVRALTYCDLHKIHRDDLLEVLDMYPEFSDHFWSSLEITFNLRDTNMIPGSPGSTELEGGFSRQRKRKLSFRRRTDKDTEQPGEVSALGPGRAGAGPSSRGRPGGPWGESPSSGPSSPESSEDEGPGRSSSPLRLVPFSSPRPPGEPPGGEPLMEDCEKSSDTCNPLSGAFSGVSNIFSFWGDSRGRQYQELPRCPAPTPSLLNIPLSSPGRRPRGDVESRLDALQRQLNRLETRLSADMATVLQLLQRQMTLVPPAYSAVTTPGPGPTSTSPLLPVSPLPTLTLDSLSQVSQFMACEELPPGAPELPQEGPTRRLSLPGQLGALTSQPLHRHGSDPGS
T3 sequence (P35372 whole entry): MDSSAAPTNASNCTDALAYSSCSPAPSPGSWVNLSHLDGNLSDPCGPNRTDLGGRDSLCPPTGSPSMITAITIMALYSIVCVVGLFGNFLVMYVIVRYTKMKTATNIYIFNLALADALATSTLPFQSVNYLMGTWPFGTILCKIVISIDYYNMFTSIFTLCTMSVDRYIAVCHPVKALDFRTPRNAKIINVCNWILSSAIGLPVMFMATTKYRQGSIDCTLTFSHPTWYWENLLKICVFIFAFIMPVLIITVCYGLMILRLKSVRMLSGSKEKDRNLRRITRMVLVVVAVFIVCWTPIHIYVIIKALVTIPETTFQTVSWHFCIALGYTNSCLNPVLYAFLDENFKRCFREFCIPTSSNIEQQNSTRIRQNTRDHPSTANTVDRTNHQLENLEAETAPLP
T1 sequence (P35372 whole entry): as above

| SMILES | EC50 (μ-opioid receptors (MOR)) [µM] | Emax (μ-opioid receptors (MOR)) [%] | further results |
| --- | --- | --- | --- |
| c1ccc([C@]2(CCN[C@H]3CCOc4ccccc43)CCOC3(CCCC3)C2)nc1 (single isomer, unassigned) [Example 5] | 0.005 | 122 | IC50 (hERG potassium channel): 6.2 µM |
| CCN1CC[C@@H](NCC[C@@]2(c3ccccn3)CCOC3(CCCC3)C2)c2ccccc21 [Example 2, (R)-1-ethyl-N-(2-((R)-9-(pyridin-2-yl)-6-oxaspiro[4.5]decan-9-yl)ethyl)-1,2,3,4-tetrahydroquinolin-4-amine] | – | 0 | EC50 (MOR receptor; [1]): > 10 µM; Emax (MOR receptor): 4%; EC50 (μ-opioid receptors (MOR); [2]): > 10 µM |
| O[C@@H]1Cc2ccccc2[C@H]1NCC[C@@]1(c2ccccn2)CCOC2(CCCC2)C1 [Example 3, (1R,2R)-1-((2-((R)-9-(pyridin-2-yl)-6-oxaspiro[4.5]decan-9-yl)ethyl)amino)-2,3-dihydro-1H-inden-2-ol] | 0.002 | 124 | IC50 (hERG potassium channel): > 30 µM |
| CO[C@@H]1Cc2ccccc2[C@H]1NCC[C@@]1(c2ccccn2)CCOC2(CCCC2)C1 [Example 4, (1R,2R)-2-methoxy-N-(2-((R)-9-(pyridin-2-yl)-6-oxaspiro[4.5]decan-9-yl)ethyl)-2,3-dihydro-1H-inden-1-amine] | 0.001 | 129 | – |
| c1ccc([C@]2(CCN[C@H]3CCOc4ccccc43)CCOC3(CCCC3)C2)nc1 [Example 6, (S)-N-(2-((R)-9-(pyridin-2-yl)-6-oxaspiro[4.5]decan-9-yl)ethyl)chroman-4-amine] | 0.001 | 115 | IC50 (hERG potassium channel): 3.8 µM |
| c1ccc([C@]2(CCN[C@@H]3CCOc4ccccc43)CCOC3(CCCC3)C2)nc1 [Example 7, (R)-N-(2-((R)-9-(pyridin-2-yl)-6-oxaspiro[4.5]decan-9-yl)ethyl)chroman-4-amine] | > 10 | 0 | – |
| Fc1ccc2c(c1)C(NCC[C@@]1(c3ccccn3)CCOC3(CCCC3)C1)CCO2 (stereo partly drawn) [Example 8, 6-fluoro-N-(2-((R)-9-(pyridin-2-yl)-6-oxaspiro[4.5]decan-9-yl)ethyl)chroman-4-amine] | 0.003 | 114 | – |
| c1ccc([C@]2(CCN[C@@H]3CCCc4ccccc43)CCOC3(CCCC3)C2)nc1 [Example 9, (R)-N-(2-((R)-9-(pyridin-2-yl)-6-oxaspiro[4.5]decan-9-yl)ethyl)-1,2,3,4-tetrahydronaphthalen-1-amine] | > 10 | 48 | – |
| c1ccc([C@]2(CCN[C@H]3CCCc4ccccc43)CCOC3(CCCC3)C2)nc1 [Example 10, (S)-N-(2-((R)-9-(pyridin-2-yl)-6-oxaspiro[4.5]decan-9-yl)ethyl)-1,2,3,4-tetrahydronaphthalen-1-amine] | 0.004 | 113 | – |
| c1ccc([C@]2(CCN[C@@H]3CCc4ccccc43)CCOC3(CCCC3)C2)nc1 [Example 15, (R)-N-(2-((R)-9-(pyridin-2-yl)-6-oxaspiro[4.5]decan-9-yl)ethyl)-2,3-dihydro-1H-inden-1-amine] | > 10 | 0 | – |
| CO[C@H]1Cc2ccccc2[C@@H]1NCC[C@@]1(c2ccccn2)CCOC2(CCCC2)C1 [Example 17, (1S,2S)-2-methoxy-N-(2-((R)-9-(pyridin-2-yl)-6-oxaspiro[4.5]decan-9-yl)ethyl)-2,3-dihydro-1H-inden-1-amine] | > 10 | 0 | – |
| O[C@H]1Cc2ccccc2[C@@H]1NCCC1(c2ccccn2)CCOC2(CCCC2)C1 (stereo partly drawn) [Example 18, (1S,2S)-1-((2-(9-(pyridin-2-yl)-6-oxaspiro[4.5]decan-9-yl)ethyl)amino)-2,3-dihydro-1H-inden-2-ol] | > 10 | 4 | – |
| COC[C@@H]1CC[C@H](NCC[C@@]2(c3ccccn3)CCOC3(CCCC3)C2)c2ccccc21 [Example 23, (1S,4R)-4-(methoxymethyl)-N-(2-((R)-9-(pyridin-2-yl)-6-oxaspiro[4.5]decan-9-yl)ethyl)-1,2,3,4-tetrahydronaphthalen-1-amine] | 0.005 | 120 | – |
| C=C1CC[C@H](NCC[C@@]2(c3ccccn3)CCOC3(CCCC3)C2)c2ccccc21 [Example 28, (S)-4-methylene-N-(2-((R)-9-(pyridin-2-yl)-6-oxaspiro[4.5]decan-9-yl)ethyl)-1,2,3,4-tetrahydronaphthalen-1-amine] | – | – | EC50 (MOR receptor): 0.015 µM; Emax (MOR receptor): 22% |
| N#CCO[C@H]1CC[C@H](NCC[C@@]2(c3ccccn3)CCOC3(CCCC3)C2)c2ccccc21 [Example 29, 2-(((1S,4S)-4-((2-((R)-9-(pyridin-2-yl)-6-oxaspiro[4.5]decan-9-yl)ethyl)amino)-1,2,3,4-tetrahydronaphthalen-1-yl)oxy)acetonitrile] | – | 112 | EC50 (MOR receptor; [1]): 0.033 µM; Emax (MOR receptor): 32%; EC50 (μ-opioid receptors (MOR); [2]): 0.007 µM |
| CO[C@@H]1CC[C@H](NCC[C@@]2(c3ccccn3)CCOC3(CCCC3)C2)c2ccccc21 [Example 30, (1S,4R)-4-methoxy-N-(2-((R)-9-(pyridin-2-yl)-6-oxaspiro[4.5]decan-9-yl)ethyl)-1,2,3,4-tetrahydronaphthalen-1-amine] | 0.002 | 126 | – |
| N#CCC1CC[C@H](NCC[C@@]2(c3ccccn3)CCOC3(CCCC3)C2)c2ccccc21 (stereo partly drawn) [Example 32, 2-((4S)-4-((2-((R)-9-(pyridin-2-yl)-6-oxaspiro[4.5]decan-9-yl)ethyl)amino)-1,2,3,4-tetra hydronaphthalen-1-yl)acetonitrile] | – | 133 | EC50 (μ-opioid receptors (MOR); [2]): 0.0008 µM |
| c1ccc([C@]2(CCN[C@H]3CCC4(OCCO4)c4ccccc43)CCOC3(CCCC3)C2)nc1 [Example 33, (S)-N-(2-((R)-9-(pyridin-2-yl)-6-oxaspiro[4.5]decan-9-yl)ethyl)-3,4-dihydro-2H-spiro[naphthalen-1,2′-[1,3]dioxolane]-4-amine] | – | – | Emax (MOR receptor): 27% |
| CCCO[C@H]1CC[C@H](NCC[C@@]2(c3ccccn3)CCOC3(CCCC3)C2)c2ccccc21 [Example 34, (1S,4S)-4-propoxy-N-(2-((R)-9-(pyridin-2-yl)-6-oxaspiro[4.5]decan-9-yl)ethyl)-1,2,3,4-tetrahydronaphthalen-1-amine] | – | – | EC50 (MOR receptor; [1]): 0.016 µM; Emax (MOR receptor): 10% |
| COc1ccsc1CNCC[C@@]1(c2ccccn2)CCOC2(CCCC2)C1 [TRV-130, reference compound] | – | – | IC50 (hERG potassium channel): 1.6 µM |
